Key:
[1] = tested on: Wheat (cultivar: Apogee); experiment: Test Example 6: reduction of high-temperature stress by spraying treatment of wheat; format: in vivo; conditions: 36° C./32° C. for 7 days, 90 days after stress
Protocol: Five wheat seeds were sown in the culture soil (AISAI) in each plastic pot and cultivated for 28 days in an artificial weather control room under the conditions of a temperature of 18° C. in daytime/15° C. in night, and an illuminance of 7,000 lux. Before the stress test, 3 individuals per pot were removed.
To 0.5 mg of the present compound 1 were added 120 mg of a mixture (weight ratio 1:1) of white carbon and ammonium polyoxyethylene alkyl ether sulfate and 300 μl of water. The mixture was finely ground by a wet grinding method to obtain a flowable formulation of the present compound 1. This flowable formulation was diluted with 50 ml or 500 ml of water. The mixture was diluted with RINO (manufactured by NIHON NOHYAKU CO., LTD) as a spreading agent to 5,000-fold dilution to obtain a spray solution containing 10 ppm or 1 ppm of the present compound 1. A sufficient amount of the spray solution was applied to the wheat seedlings by using an automatic spraying machine.
In addition, a flowable formulation without the present compound 1 was prepared and then sprayed. This is called as a non-treated group.
The tested plants at 28 days after the sowing were cultivated for 7 days in an artificial weather control room under the conditions of a temperature of 36° C. in daytime/32° C. in night, a humidity of 50% in daytime/60% in night, an illuminance of 7,000 lux, and a day length of 12 hours.
After the high-temperature stress treatment, the plants were cultivated for 4 days in an artificial weather control room under the conditions of a temperature of 18° C. in daytime/15° C. in night, and a illuminance of 7,000 lux. Then, 90 days after the high-temperature stress treatment, the number and the weight of seeds in ears of the tested plants in 7 or 8 pots were measured, and the average values of the number and the weight of seeds per one ear were calculated. As a result, the number and the weight of seeds in the wheat plants treated with the present compound 1 at a concentration of 1 ppm or 10 ppm were much larger those in the non-treated group, in which the wheat plants were not treated with the present compound 1.

[2] = tested on: Rice (cultivar: Nipponbare); experiment: Test Example 2: reduction of low-temperature stress by immersion treatment of rice; format: in vivo; conditions: 1 ppm in hydroponic solution; 4° C. for 5 days, then 4 days at 25° C.
Protocol: Rice (cultivar: Nipponbare)
A necessary amount of rice seeds was immersed in an aqueous solution of 1,000 ppm of Benlate, and incubated at 30° C. overnight under dark conditions. The aqueous solution of Benlate was replaced with distilled water, and the seeds were further incubated at 30° C. overnight under dark conditions to stimulate the germination of the seeds. A filter paper was placed on the holes of a plug tray having 406 holes, and the rice seeds obtained after the stimulation of germination were sown on the filter paper. To the rice seeds was added a kimura B solution for hydroponics (see Plant Science 119: 39-47 (1996)) at ½ concentration, and cultivated for 5 days in an artificial weather control room under the following conditions: • temperature: daytime 28° C./night 23° C., humidity: 70%, illuminance: 8,500 lux, and day length: 12 hours. <Compound Treatment> […]
Four (4) days after the cultivation, the overground part of each rice plant in the treated group was taken a photograph, and the area of a green portion in the obtained image data was measured with image analysis software Win ROOF (manufactured by MITANI CORPORATION) to determine the green area of the overground part of the plant. In the treated group, the experiment was performed in duplication and the average value of the green area per individual was calculated. […]

O=C(O)c1cc2cc(C(F)(F)F)ccc2s1 [The present compound 1, 5-(trifluoromethyl)benzo[b]thiophene-2-carboxylic acid]
much larger: number of seeds per ear vs non-treated group ([1]; spray 1 ppm) | weight of seeds per ear vs non-treated group ([1]; spray 1 ppm) | number of seeds per ear vs non-treated group ([1]; spray 10 ppm) | weight of seeds per ear vs non-treated group ([1]; spray 10 ppm) | green area of the overground part of the plant vs non-treated group [2]
